{"source": "ChEMBL document CHEMBL2157913", "about": "“Synthesis and evaluation of apoptosis induction of thienopyrimidine compounds on KRAS and BRAF mutated colorectal cancer cell lines” (Bioorg Med Chem, 2012)", "key": {"HT-29 [1]": {"system": "HT-29", "assay": "Induction of apoptosis in human HT-29 cells expressing BRAF mutant assessed as activation of caspase-3 at 200 uM after 10 mins by flow cytometry relative to control", "assay_type": "functional"}, "HCT-116": {"system": "HCT-116", "assay": "Induction of apoptosis in human HCT116 cells expressing KRAS mutant assessed as depolarization of mitochondrial membrane after 24 hrs by flow cytometry", "assay_type": "functional, cell-based"}, "HeLa": {"system": "HeLa", "assay": "Induction of apoptosis in human HeLa cells expressing wild type KRAS and BRAF assessed as depolarization of mitochondrial membrane after 24 hrs by flow cytometry", "assay_type": "functional, cell-based"}, "HT-29 [2]": {"system": "HT-29", "assay": "Induction of apoptosis in human HT-29 cells expressing BRAF mutant assessed as depolarization of mitochondrial membrane after 24 hrs by flow cytometry", "assay_type": "functional, cell-based"}, "HT-29 [3]": {"system": "HT-29", "assay": "Induction of apoptosis in human HT-29 cells expressing BRAF mutant assessed as cell death at 200 uM after 10 mins by flow cytometry", "assay_type": "functional, cell-based"}, "[4]": {"settings": "Homo sapiens, HeLa, 24 h, read-out: IC50"}, "[5]": {"settings": "Homo sapiens, HCT-116, 24 h, read-out: IC50"}, "[6]": {"settings": "Homo sapiens, HT-29, 24 h, read-out: IC50"}}, "note": "Activity calls are given as the source filed them. The calls are words filed in the database; no cut-off is given here.", "data": [{"smiles": "c1ccc(Nc2ncnc3sc4ccccc4c23)cc1", "values": [{"measurement": "Activity", "setting": "HT-29 [1]", "value": "Active"}, {"measurement": "IC50", "setting": "HCT-116; hct-116", "value": "Not Active"}, {"measurement": "IC50", "setting": "HeLa; [4]", "value": "> 130", "unit": "µM"}, {"measurement": "IC50", "setting": "HT-29 [2]; ht-29", "value": "Not Active"}]}, {"smiles": "CN(C)c1ncnc2sc3ccccc3c12", "values": [{"measurement": "IC50", "setting": "HCT-116; hct-116", "value": "Not Active"}, {"measurement": "IC50", "setting": "HeLa; [4]", "value": 102, "unit": "µM"}, {"measurement": "IC50", "setting": "HT-29 [2]; ht-29", "value": "Not Active"}]}, {"smiles": "COc1ccccc1CNc1ncnc2c1sc1ccccc12", "values": [{"measurement": "IC50", "setting": "HCT-116; hct-116", "value": "Not Active"}, {"measurement": "IC50", "setting": "HeLa; [4]", "value": 129, "unit": "µM"}, {"measurement": "IC50", "setting": "HT-29 [2]; ht-29", "value": "Not Active"}]}, {"smiles": "COc1ccccc1Nc1ncnc2sc3ccccc3c12", "values": [{"measurement": "Activity", "setting": "HT-29 [1]", "value": "Active"}, {"measurement": "IC50", "setting": "HCT-116; hct-116", "value": "Not Active"}, {"measurement": "IC50", "setting": "HeLa; [4]", "value": "> 130", "unit": "µM"}, {"measurement": "IC50", "setting": "HT-29 [2]; ht-29", "value": "Not Active"}]}, {"smiles": "c1ccc(CNc2ncnc3c2sc2ccccc23)cc1", "values": [{"measurement": "IC50", "setting": "HCT-116; hct-116", "value": "Not Active"}, {"measurement": "IC50", "setting": "HeLa; [4]", "value": 105, "unit": "µM"}, {"measurement": "IC50", "setting": "HT-29 [2]; ht-29", "value": "Not Active"}]}, {"smiles": "c1ccc(CNc2ncnc3sc4ccccc4c23)cc1", "values": [{"measurement": "IC50", "setting": "HCT-116; [5]", "value": "> 130", "unit": "µM"}, {"measurement": "IC50", "setting": "HeLa; [4]", "value": 113, "unit": "µM"}, {"measurement": "IC50", "setting": "HT-29 [2]; [6]", "value": 126, "unit": "µM"}]}, {"smiles": "COc1ccc(CNc2ncnc3c2sc2ccccc23)cc1", "values": [{"measurement": "IC50", "setting": "HCT-116; hct-116", "value": "Not Active"}, {"measurement": "IC50", "setting": "HeLa; [4]", "value": 118, "unit": "µM"}, {"measurement": "IC50", "setting": "HT-29 [2]; ht-29", "value": "Not Active"}]}, {"smiles": "Cc1ccccc1Nc1ncnc2c1sc1ccccc12", "values": [{"measurement": "IC50", "setting": "HCT-116; [5]", "value": 121, "unit": "µM"}, {"measurement": "IC50", "setting": "HeLa; [4]", "value": 77.7, "unit": "µM"}, {"measurement": "IC50", "setting": "HT-29 [2]; [6]", "value": 127, "unit": "µM"}]}, {"smiles": "Cc1ccccc1CNc1ncnc2sc3ccccc3c12", "values": [{"measurement": "IC50", "setting": "HCT-116; hct-116", "value": "Not Active"}, {"measurement": "IC50", "setting": "HeLa; [4]", "value": "> 130", "unit": "µM"}, {"measurement": "IC50", "setting": "HT-29 [2]; ht-29", "value": "Not Active"}]}, {"smiles": "COc1ccc(Nc2ncnc3sc4ccccc4c23)cc1", "values": [{"measurement": "fold change (FC)", "setting": "HT-29 [1]", "value": 10}, {"measurement": "IC50", "setting": "HCT-116; [5]", "value": 92, "unit": "µM"}, {"measurement": "Activity", "setting": "HT-29 [3]", "value": "Active"}, {"measurement": "IC50", "setting": "HeLa; [4]", "value": 109, "unit": "µM"}, {"measurement": "IC50", "setting": "HT-29 [2]; [6]", "value": 117, "unit": "µM"}]}, {"smiles": "c1ccc(Nc2ncnc3c2sc2ccccc23)cc1", "values": [{"measurement": "IC50", "setting": "HCT-116; hct-116", "value": "Not Active"}, {"measurement": "IC50", "setting": "HeLa; hela", "value": "Not Active"}, {"measurement": "IC50", "setting": "HT-29 [2]; ht-29", "value": "Not Active"}]}, {"smiles": "Cc1ccccc1CNc1ncnc2c1sc1ccccc12", "values": [{"measurement": "IC50", "setting": "HCT-116; hct-116", "value": "Not Active"}, {"measurement": "IC50", "setting": "HeLa; hela", "value": "Not Active"}, {"measurement": "IC50", "setting": "HT-29 [2]; ht-29", "value": "Not Active"}]}, {"smiles": "Cc1ccccc1Nc1ncnc2sc3ccccc3c12", "values": [{"measurement": "fold change (FC)", "setting": "HT-29 [1]", "value": 10}, {"measurement": "IC50", "setting": "HCT-116; [5]", "value": 101, "unit": "µM"}, {"measurement": "Activity", "setting": "HT-29 [3]", "value": "Active"}, {"measurement": "IC50", "setting": "HeLa; [4]", "value": 129, "unit": "µM"}, {"measurement": "IC50", "setting": "HT-29 [2]; [6]", "value": 120, "unit": "µM"}]}]}
